Experimental data as given in patent US10813891B2, “Method of inhibiting chronification of pain” (priority 2011, dated 2020).
Entries after “also recorded” stand apart in the source; their conditions may differ. Like-named read-outs stand apart in the source and are kept apart here.

What was measured:
[1] = test system: CCI-ION rats; conditions: cited from earlier work
[2] = test system: CCI-SN rats; type: in vivo, rat; conditions: rat, in vivo
Description: (§1) Male Sprague-Dawley rats (Charles River Laboratories, L'Arbresle, France), weighing 150-200 g on arrival, were used. Animals were maintained under controlled environmental conditions (22±1° C., 60% relative humidity, 12 h/12 h light/dark cycle, food and water ad libitum) starting from reception in the laboratory, for at least 1 week before any intervention or treatment and thereafter, until euthanasia.
Rats were anaesthetized as above and the common sciatic nerve was exposed. Using a dissection microscope (2× magnification), four chromic catgut (5-0) ligations were tied loosely with about 1 mm spacing, proximally to the sciatic trifurcation (Bennett and Xie, 1988). Finally, the skin and muscle were sewed using silk sutures (4-0). In sham-operated animals, the same surgery was performed, but the nerve was not ligated.
(§2) Tapentadol (1, 3 and 10 mg/kg i.p.), reboxetine (10 mg/kg i.p.), morphine (1 and 3 mg/kg s.c.) or their vehicle (0.9% NaCl) were injected acutely 14 days after surgery, when allodynia/hyperalgesia reached a plateau in both CCI-SN and CCI-ION rats. Behavioral tests were performed at various times for up to 4 h after injection. In drug association procedure, reboxetine or saline was administered 15 min before morphine or saline.
(§3) Subchronic treatment consisted of twice daily injections of tapentadol (10 mg/kg, i.p. at 10:00 am and 6:00 pm) or saline for 4 days starting on the 15th day after nerve ligation in both CCI-ION and CCI-SN rats. Animals were further injected with tapentadol (10 mg/kg i.p.) or saline at 10:00 am the following day (19th day post-surgery), and assessment of allodynia with von Frey filament tests (see below) was made at various times up to 4 hours after this injection. All rats were killed by decapitation 4 hours after the last injection for real-time qRT-PCR determinations of specific mRNAs in ganglia and central tissues (see below).
Before testing, each rat was habituated for 2 h as above, and mechanical sensitivity was then determined with a graded series of […] von Frey filaments, that produced a bending force of 6, 8, 10, 12, 15, 26, and 60 g, respectively. The stimuli were applied within the SN territory (lateral part of the hind paw sole). Each filament was tested three times on the nerve-injured side in increasing order starting with the filament producing the lowest force. As for the CCI-ION rats, the von Frey filaments were applied at least 3 seconds after the rat had returned to its initial resting state. The minimal force filament for which animals presented either a brisk paw withdrawal and/or an escape attempt in response to at least 2 out of the 3 stimulations allowed determination of the mechanical response threshold. The 60.00 g filament was chosen as the cutoff threshold to inhibit any tissue injury.
A—Two weeks after unilateral chronic constriction injury to the sciatic nerve, pressure threshold values (as g) to trigger nocifensive responses to von Frey filaments application onto the plantar surface of ipsilateral hindpaw were determined at various times after acute injection of tapentadol (1, 3 or 10 mg/kg, i.p.) or saline. B—On day 15 (D on abscissa) after nerve ligation, rats were treated subchronically with tapentadol (10 mg/kg, i.p., twice daily, at 10:00 AM and 6:00 PM) or saline for four days. On the following day (day 19 after surgery), both tapentadol- and saline-pretreated CCI-SN rats were injected with tapentadol (10 mg/kg, i.p.; 0 on abscissa) and then subjected to von Frey filaments' test applied to ipsilateral hindpaw for determination of pressure threshold values (as g) at various times thereafter.

[3] = test system: CCI-SN rats; conditions: rat, in vivo; cited from earlier work
[4] = test system: CCI-ION rats; type: in vivo, rat; conditions: rat, in vivo
Description: as §1
Rats were anaesthetized with sodium pentobarbital (50 mg/kg i.p.). Unilateral CCI-ION was performed under direct visual control using a Zeiss microscope (10-25×). Briefly, the head was fixed in a Horsley-Clarke stereotaxic frame and a midline scalp incision was made, exposing skull and nasal bone. The edge of the orbit, formed by the maxillary, frontal, lacrimal, and zygomatic bones, was dissected free. The orbital contents were then gently deflected to give access to the infraorbital nerve which was dissected free at its most rostral extent in the orbital cavity, just caudal to the infraorbital foramen. Only 5 mm of the nerve could be freed, providing the space for placement of two chromic catgut (5-0) ligations tied loosely (with about 2 mm spacing) around it. […] Finally, scalp incision was closed using silk sutures (4-0). In sham-operated rats, the ION was exposed using the same procedure, but was not ligated.
as §2, §3
Rats were placed individually in small (35×20×15 cm) plastic cages for a 2 h habituation period. Before any stimulation session, rats freely explored the observation cage and the testing environments for 2 h. Then mechanical sensitivity was determined with a graded series of […] von Frey filaments (Bioseb, Bordeaux, France). The filaments produced a bending force of 0.40, 0.60, 1.00, 2.00, 4.00, 6.00, 8.00, 10.00 and 12.00 g, respectively. The stimuli were applied within the ION territory (vibrissae pad) three times on the nerve-injured side and then on the contralateral side for a total of 6 applications of each filament per rat, always beginning with the filament producing the lowest force. The von Frey filaments were applied at least 3 seconds after the rat had returned to its initial resting state. For each session, the complete series of von Frey filaments was tested in increasing force order. […] The latter responses represented the highest scores in the rank-ordered response scoring system initially described by Vos et al. (1994). Under our own conditions, the mechanical response threshold was determined as the minimal force filament causing at least one among these responses to at least 2 out of the 3 applications in vibrissae territory. […] To avoid nonspecific responses, only these rats were included in the study.

[5] = test system: mice hindpaw after incision; conditions: mouse, in vivo; cited from earlier work

## CN1CC[C@]23c4c5ccc(O)c4O[C@H]2[C@@H](O)C=C[C@H]3[C@H]1C5 [morphine]
[1]; rat, in vivo
  allodynia in the vibrissae territory: inactive against allodynia in the vibrissae territory
  cephalic neuropathic pain, each drug alone: inactive
[2]
  effect on CCI-SN-induced mechanical allodynia: fully reversed CCI-SN-induced mechanical allodynia; also recorded: allodynia was not completely reversed
  persistence of reversal of allodynia: at least one hour
  pressure threshold values, either drug alone: only discrete increases in pressure threshold values
[3]
  allodynia/hyperalgesia in the hindpaw: reversed allodynia/hyperalgesia in the hindpaw
[4]
  maximum increase in pressure threshold value, as % of that in healthy intact rats: 20%
[5]
  incision-induced hyperalgesia: does not inhibit incision-induced hyperalgesia; also recorded: hyperalgesia is even maintained

## NC1=N[C@H](O)[C@H]2[C@H]3O[C@]4(O)O[C@@H]([C@@H](O)[C@@]2(N1)[C@@H]4O)[C@]3(O)CO [tetrodotoxin]
[1]; rat, in vivo
  allodynia in the vibrissae territory: inactive against allodynia in the vibrissae territory
[3]
  allodynia/hyperalgesia in the hindpaw: reversed allodynia/hyperalgesia in the hindpaw

## CCOc1ccccc1OC(c1ccccc1)C1CNCCO1 (stereo not shown) [reboxetine]
[2]
  pressure threshold values, either drug alone: only discrete increases in pressure threshold values
[4]
  anti-allodynic effect alone: completely inactive on its own

## NC1CCN(O)C1=O (single isomer, unassigned; (+)) [(+)-HA966]
[1]; each drug alone
  cephalic neuropathic pain, each drug alone: inactive
